Data as given in patent US11957655B2, “Methods of treating hearing loss” (The Regents of the University of California, priority 2015, dated 2024).

Experiments:
[1] = system: wild type fibroblasts (ER Ca2+); assay: Ca2+ quantification in intracellular compartments of fibroblasts by Mag-FURA-2 imaging; assay type: cell-based, mouse; conditions: ten minutes with 1 micromolar ATP and 1 micromolar thapsigargin
Description: In one experiment, quantification of Ca2^+ was performed in intracellular compartments of fibroblasts by Mag-FURA-2 imaging. In wild type fibroblasts, an area of high Ca2^+ concentration in the perinuclear region corresponding to the ER was observed. […] Quantification of the Ca2^+ gradient between ER and cytosol compartments in fibroblasts was also measured in both wild type and TMTC4 KO mice.

[2] = system: SERCA2b; cochlear explants from TMTC4 KO and wild type mice; assay: UPR stress pathway and Caspase 3 mRNA in cochlear explants treated with thapsigargin; assay type: cell-based, mouse; conditions: thapsigargin treated cochlear explants from TMTC4 KO and wild type mice (FIG. 2)
Description: FIG. 2. SYBR Green measurement of qPCR product measuring RNA expression of spliced X-box binding protein 1 (S-XBP1), the molecular chaperone BiP, the pro-apoptotic protein CHOP, and Caspase 3 in cochlear explants from mice. WT=wild type and KO=TMTC4 knockout mice. +TG indicates explants treated with the SERCA2b inhibitor thapsigargin. In another experiment, cochlear explants from TMTC4 KO and wild type mice were extracted. One group of explants was treated with the SERCA2b inhibitor thapsigargin. The expression of UPR stress pathway genes S-XBP1 BiP, CHOP, and the apoptotic gene Caspase 3 were measured by mRNA quantification (FIG. 2). In the untreated explants, the expression of the UPR stress response markers and of Caspase3 were about equal.

[3] = system: SERCA2b; fibroblast cells from TMTC4 KO and wild type mice; assay: UPR stress pathway gene mRNA in fibroblasts treated with thapsigargin; assay type: cell-based, mouse; conditions: TMTC4 KO compared to wild type cells
Description: Fibroblast cells were generated from TMTC4 KO mice and wild type mice. One group of cells was treated with the SERCA2b inhibitor thapsigargin. The expression of UPR stress pathway genes spliced X-box binding protein 1 (S-XBP1), the molecular chaperone BiP, and the pro-apoptotic protein CHOP were measured by mRNA quantification. The expression of the UPR stress response markers was low and was about equal in untreated wild type and TMTC4 KO cells.

[4] = system: wild type mice exposed to damaging noise; assay: Noise-induced hearing loss in wild type mice, ABR threshold; assay type: in vivo, mouse; conditions: 2.5 mg/kg intraperitoneal 4 hours before damaging noise, treated vs untreated (FIG. 9, N=3)
Description: FIG. 9 depicts ABR threshold to click, 8 kHz, and 16 kHz stimuli in mice treated with ISRIB (dotted line, N=3)) compared with vehicle (solid line, N=3). All values are means with error bars indicating the standard error of the mean.
Wild type mice were subjected to the same treatment and cochleae were subsequently removed and apoptotic ER response gene expression was assessed.
ISRIB was delivered […] via intraperitoneal injection 4 hours before exposure to damaging noise, at 2.5 mg/kg.

[5] = system: UPR induction (CHOP and ATF4 mRNA) in HEK293T cells; assay: UPR induction by thapsigargin in HEK293T cells, CHOP and ATF4 mRNA by qPCR; assay type: cell-based; conditions: HEK293T cells pretreated with ISRIB vs control formulation, then 1 micromolar thapsigargin
Description: In another experiment, HEK293T cells were pretreated with a control formulation or ISRIB, […], then exposed […] to 1 micromolar thapsigargin for 2 hours. CHOP and ATF4 mRNA levels were then assessed by qPCR.

Compound	Ca2+ concentration of perinuclear region (ER) [1]	expression of UPR stress response markers (S-XBP1, BiP, CHOP) and Caspase 3 mRNA [2]	expression of UPR stress response markers (S-XBP1, BiP, CHOP) mRNA [3]	ABR threshold to clicks at 8 kHz and 16 kHz [4]	ATF4 mRNA expression [5]	CHOP mRNA expression [5]
C/C=C(/C)C(=O)O[C@H]1C(C)=C2[C@H]([C@@H]1OC(=O)CCCCCCC)[C@@](C)(OC(C)=O)C[C@H](OC(=O)CCC)[C@@]1(O)[C@H]2OC(=O)[C@@]1(C)O [thapsigargin]	reduced to that observed in the surrounding cytosol	substantially elevated	substantially elevated in the TMTC4 KO cells compared to wild type cells	–	–	–
O=C(COc1ccc(Cl)cc1)N[C@H]1CC[C@H](NC(=O)COc2ccc(Cl)cc2)CC1 [ISRIB, trans-N,N′-(cyclohexane-1,4-diyl)bis(2-(4-chlorophenoxy)acetamide)]	–	–	–	lower in treated mice than in untreated mice	significant and substantial reduction	significant and substantial reduction
